Results from patent US8674109B2, “Pesticidal compositions” (Dow AgroSciences, LLC., priority 2009, dated 2014).

Experiments:
Type in all cases: in vivo
[1] = test system: corn earworm (CEW; Helicoverpa zea: Lepidoptera); assay: Insecticidal test for corn earworm, 128-well diet tray assay
Experimental: Insecticidal Test for Corn Earworm (Helicoverpa zea)
(§1) Bioassays on corn earworm (CEW; Helicoverpa zea: Lepidoptera) were conducted using a 128-well diet tray assay. Three to five second instar CEW larvae were placed in each well (3 mL) of the diet tray that had been previously filled with 1 mL of artificial diet to which 50 μg/cm^2 of the test compound (dissolved in 50 μL of 90:10 acetone-water mixture) had been applied (to each of eight wells) and then allowed to dry. Trays were covered with a clear self-adhesive cover, and held at 25° C., 14:10 light-dark for six days. Percent mortality was recorded for the larvae in each well; activity in the eight wells was then averaged.

[2] = test system: beet armyworm (BAW; Spodoptera exigua: Lepidoptera); assay: Insecticidal test for beet armyworm, 128-well diet tray assay
Experimental: Insecticidal Test for Beet Armyworm (Spodoptera exigua)
as §1, with “beet armyworm (BAW; Spodoptera exigua:” for “corn earworm (CEW; Helicoverpa zea:”, “BAW” for “CEW”

[3] = test system: green peach aphid (Myzus persicae); assay: Insecticidal test for green peach aphid in foliar spray assay on cabbage seedlings
Experimental: Insecticidal Test for Green Peach Aphid (Myzus persicae) in Foliar Spray Assay
Cabbage seedlings grown in 3-inch pots, with 2-3 small (3-5 cm) true leaves, were used as test substrate. The seedlings were infested with 20-50 green peach aphids (wingless adult and nymph) one day prior to chemical application. Four pots with individual seedlings were used for each treatment. Compounds (2 mg) were dissolved in 2 mL of acetone/methanol (1:1) solvent, forming stock solutions of 1000 ppm. The stock solutions were diluted 5× with 0.025% Tween 20 in H2O to obtain the solution at 200 ppm. A hand-held Devilbiss sprayer was used for spraying a solution to both sides of cabbage leaves until runoff. Reference plants (solvent check) were sprayed with the diluent only. Treated plants were held in a holding room for three days at approximately 25° C. and 40% relative humidity (RH) prior to grading. Evaluation was conducted by counting the number of live aphids per plant under a microscope. Insecticidal activity was measured by using Abbott's correction formula are presented in Table 2: Corrected % Control=100*(X−Y)/X
where • X=No. of live aphids on solvent check plants • Y=No. of live aphids on treated plants

| Structure (SMILES) | % Mortality CEW 50 μg/cm^2 [1] | % Mortality BAW 50 μg/cm^2 [2] | % Mortality GPA 200 ppm [3] |
| --- | --- | --- | --- |
| CCOC(=O)C#CC(C)(C)OC(=O)Nc1ccc(-c2ncn(-c3ccc(OC(F)(F)F)cc3)n2)cc1 [Compound 23, 4-methyl-4-{4-[1-(4-trifluoromethoxyphenyl)-1H-[1,2,4]triazol-3-yl]-phenylcarbamoyloxy}-pent-2-ynoic acid ethyl ester] | B (Less than 50) | B (Less than 50) | B (Less than 80) |
| CC(OC(=O)Nc1ccc(-c2ncn(-c3ccc(OC(F)(F)F)cc3)n2)cc1)C(F)(F)C(F)(F)F (stereo not drawn) [Compound 24, {4-[1-(4-trifluoromethoxyphenyl)-1H-[1,2,4]triazol-3-yl]phenyl}-carbamic acid 2,2,3,3,3-pentafluoro-1-methyl-propyl ester] | A (50-100) | A (50-100) | B (Less than 80) |
| CC(C)(C)OC(=O)Nc1ccc(-c2ncn(-c3ccc(OC(F)(F)F)cc3)n2)cc1 [Compound 25] | A (50-100) | A (50-100) | B (Less than 80) |
| CC(OC(=O)Nc1ccc(-c2ncn(-c3ccc(C(F)(F)F)cc3)n2)cc1)c1ccc(C(F)(F)F)cc1 (stereo not drawn) [Compound 27, 1-(4-(trifluoromethyl)phenyl)ethyl 4-(1-(4-(trifluoromethyl)phenyl)-1H-1,2,4-triazol-3-yl)-phenylcarbamate] | A (50-100) | A (50-100) | B (Less than 80) |
| CC(OC(=O)Nc1ccc(-c2ncn(-c3ccc(C(F)(F)F)cc3)n2)cc1)c1ccc(C(F)(F)F)nc1 (stereo not drawn) [Compound 28] | A (50-100) | A (50-100) | B (Less than 80) |
| C#CC(OC(=O)Nc1ccc(-c2ncn(-c3ccc(C(F)(F)F)cc3)n2)cc1)c1ccc(C(F)(F)F)cc1 (stereo not drawn) [Compound 29] | A (50-100) | A (50-100) | B (Less than 80) |
| CCC(OC(=O)Nc1ccc(-c2ncn(-c3ccc(C(F)(F)F)cc3)n2)cc1)c1ccccc1 (stereo not drawn) [Compound 30] | A (50-100) | A (50-100) | B (Less than 80) |
| C#CC(OC(=O)Nc1ccc(-c2ncn(-c3ccc(C(F)(F)F)cc3)n2)cc1)c1ccccc1 (stereo not drawn) [Compound 31] | A (50-100) | A (50-100) | B (Less than 80) |
| CC(C)(CCl)OC(=O)Nc1ccc(-c2ncn(-c3ccc(OC(F)(F)C(F)(F)F)cc3)n2)cc1 [Compound 32] | A (50-100) | A (50-100) | B (Less than 80) |
| CC(OC(=O)Nc1ccc(-c2ncn(-c3ccc(OC(F)(F)C(F)(F)F)cc3)n2)cc1)c1ccc(C(F)(F)F)nc1 (stereo not drawn) [Compound 33] | A (50-100) | A (50-100) | B (Less than 80) |
| CCC(OC(=O)Nc1ccc(-c2ncn(-c3ccc(OC(F)(F)C(F)(F)F)cc3)n2)cc1)c1ccccc1 (stereo not drawn) [Compound 34] | A (50-100) | A (50-100) | B (Less than 80) |
| CC(OC(=O)Nc1ccc(-c2ncn(-c3ccc(OC(F)(F)F)cc3)n2)cc1)c1ccc(I)cc1 (stereo not drawn) [Compound 35] | A (50-100) | A (50-100) | B (Less than 80) |
| CC(OC(=O)Nc1ccc(-c2ncn(-c3ccc(OC(F)(F)F)cc3)n2)cc1)c1ccc2ccccc2n1 (stereo not drawn) [Compound 36] | A (50-100) | A (50-100) | B (Less than 80) |
| Cc1cccc(C(C)OC(=O)Nc2ccc(-c3ncn(-c4ccc(OC(F)(F)F)cc4)n3)cc2)n1 (stereo not drawn) [Compound 37] | A (50-100) | A (50-100) | B (Less than 80) |
| CC(C)c1ccc(C(C)OC(=O)Nc2ccc(-c3ncn(-c4ccc(OC(F)(F)F)cc4)n3)cc2)cc1 (stereo not drawn) [Compound 38] | A (50-100) | A (50-100) | B (Less than 80) |
| CC(OC(=O)Nc1ccc(-c2ncn(-c3ccc(OC(F)(F)F)cc3)n2)cc1)c1ccc(Br)cc1 (stereo not drawn) [Compound 39] | A (50-100) | A (50-100) | B (Less than 80) |
| CC(OC(=O)Nc1ccc(-c2ncn(-c3ccc(OC(F)(F)F)cc3)n2)cc1)c1ccc(C(C)(C)C)cc1 (stereo not drawn) [Compound 40] | A (50-100) | A (50-100) | B (Less than 80) |
| CC(OC(=O)Nc1ccc(-c2ncn(-c3ccc(OC(F)(F)F)cc3)n2)cc1)c1ccc(C(F)(F)F)nc1 (stereo not drawn) [Compound 41] | A (50-100) | A (50-100) | B (Less than 80) |
| CC(OC(=O)Nc1ccc(-c2ncn(-c3ccc(OC(F)(F)F)cc3)n2)cc1)c1ccc(C(F)(F)F)cc1 (stereo not drawn) [Compound 42] | A (50-100) | A (50-100) | B (Less than 80) |
| O=C(Nc1ccc(-c2ncn(-c3ccc(OC(F)(F)F)cc3)n2)cc1)OC(c1ccccc1)c1ccc(C(F)(F)F)cc1 (stereo not drawn) [Compound 43] | A (50-100) | A (50-100) | B (Less than 80) |
| C#Cc1ccc(C(C)OC(=O)Nc2ccc(-c3ncn(-c4ccc(OC(F)(F)F)cc4)n3)cc2)cc1 (stereo not drawn) [Compound 44] | A (50-100) | A (50-100) | B (Less than 80) |
| CC(OC(=O)Nc1ccc(-c2ncn(-c3ccc(OC(F)(F)F)cc3)n2)cc1)c1ccc(C#N)cc1 (stereo not drawn) [Compound 45] | A (50-100) | A (50-100) | B (Less than 80) |
| CC(OC(=O)Nc1ccc(-c2ncn(-c3ccc(OC(F)(F)F)cc3)n2)cc1)c1ccccn1 (stereo not drawn) [Compound 46] | A (50-100) | A (50-100) | B (Less than 80) |
| Cc1ccc(C(C)OC(=O)Nc2ccc(-c3ncn(-c4ccc(OC(F)(F)F)cc4)n3)cc2)cn1 (stereo not drawn) [Compound 47] | A (50-100) | A (50-100) | B (Less than 80) |
| CC(OC(=O)Nc1ccc(-c2ncn(-c3ccc(OC(F)(F)F)cc3)n2)cc1)c1ccncc1 (stereo not drawn) [Compound 48] | A (50-100) | A (50-100) | B (Less than 80) |
| CC(C)(OC(=O)Nc1ccc(-c2ncn(-c3ccc(OC(F)(F)F)cc3)n2)cc1)c1ccc(C(F)(F)F)cc1 [Compound 49] | A (50-100) | A (50-100) | B (Less than 80) |
| O=C(Nc1ccc(-c2ncn(-c3ccc(OC(F)(F)F)cc3)n2)cc1)OCc1ccc(C(F)(F)F)cc1 [Compound 50] | B (Less than 50) | B (Less than 50) | B (Less than 80) |
